Results published in patent US4681895A, “Novel guanidinomethylcyclohexanecarboxylic acid compounds and anti-ulcer drug containing the same” (Kanebo, Ltd., priority 1985, dated 1987).

Experiments:
[1] = tested on: stress-induced gastric ulcer; assay: Activity against stress-induced gastric ulcer; assay type: in vivo, Male Sprague-Dawley rats; conditions: Rattus norvegicus; oral, rats, 15 min before stress cage in 23° C. water bath for 17 hours; read-out: ED50, Anti-stress-induced ulcer
Procedure: The experiment was carried out by a modified method of that of Takagi and Okabe [cf. Jap. J. Pharmacol., 18, 9 (1968)]. Male Sprague-Dawley rats weighing 180-200 g (8 week old), 6-8 per group, were fasted for 24 hours and administered orally with each test compound which was suspended in 1% arabic gum aqueous solution. After 15 minutes, the animals were placed in a stress cage and immerse vertically to the level of the xiphoid process in a water bath kept at 23° C. for 17 hours. The animals were killed by ether inhalation. The stomach of each rat was removed, inflated by injecting 12 ml of 1% formalin, and immersed in 1% formalin for 15 minutes. The stomach was then incised along the greater curvature and examined for lesions in the glandular portion under a dissecting microscope. The length (mm) of a ulcer was totalled on each animal and it was indicated as the ulcer index. The mean ulcer index (m) in each test compound-treated group was calculated. The control animals received the same procedure without administering of test compound and the mean ulcer index (l) was calculated. Inhibitory ratio of test compound is expressed as follows. Inhibitory ratio (%)=(1-m/l)×100 wherein l is mean ulcer index in control group, and m is mean ulcer index in test compound-treated group. The anti-ulcer activity of test compound (ED50) was calculated by dose-response curve.

[2] = tested on: ethanol-induced gastric ulcer; assay: Activity against ethanol-induced gastric ulcer; assay type: in vivo, Male Sprague-Dawley rats; conditions: Rattus norvegicus; oral, rats, 30 min before 99.5% ethanol 1 ml orally; killed 1 hour after; read-out: ED50, Anti-ethanol-induced ulcer
Procedure: (§1) The same test compounds as used in Experiment 1 were used.
The experiment was carried out according to the method of Robert et al. [cf. Gastroenterology, 77, 433 (1979)].
Male Sprague-Dawley rats weighing 180-200 g (8 week old), 6-8 per group, were fasted for 24 hours and administered orally with each test compound which was suspended in 1% arabic gum aqueous solution. After 30 minutes, 99.5% ethanol (as a necrotizing agent) was given orally to the rats in a volume of 1 ml. The animals were killed by ether inhalation 1 hour after receiving of ethanol. The stomach of each rat was removed, inflated by injecting 12 ml of 1 % formalin, and immersed in 1% formalin for 15 minutes. Afterward, the mean ulcer index and inhibitory ratio were calculated by the same method as in Experiment 1, and then the ED50 was calculated by dose-response curve.

[3] = tested on: indomethacin-induced gastric ulcer; assay: Activity against indomethacin-induced gastric ulcer; assay type: in vivo, Male Sprague-Dawley rats; conditions: Rattus norvegicus; oral, rats, 15 min before indomethacin 30 mg/kg subcutaneously; killed 5 hours after; read-out: ED50, Anti-indomethacin-induced ulcer
Procedure: as §1
The experiment was carried out by a modified method of that of Okabe et al. [cf. Dig. Dis. Sci., 28, 1034 (1983)].
Male Sprague-Dawley rats weighing 180-200 g (8 week old), 6-8 per group, were fasted for 24 hours and administered orally with each test compound which was suspended in 1% arabic gum aqueous solution. After 15 minutes, indomethacin (in a solution in 3% sodium bicarbonate solution) was given subcutaneously to the rats at a dose of 30 mg/kg. The animals were killed by ether inhalation 5 hours after receiving of indomethacin. The stomach of each rat was removed, inflated by injecting 12 ml of 1% formalin, containing 0.1% pontamine sky blue, and immersed in 1% formalin for 15 minutes. Afterward, the mean ulcer index and inhibitory ratio were calculated by the same method as in Experiment 1, and then ED50 was calculated by dose response curve.

Male ddY mice = assay: Test of acute toxity [minimum lethal dose (MLD)]; assay type: in vivo; conditions: oral, mice fasted 17 hours, observed for 7 days
Procedure: as §1
Male ddY mice weighing 20-22 g (4 week old), 5 per group, were fasted for 17 hours and administered orally with each test compound which was suspended in 1% arabic gum aqueous solution.

peptic ulcers = conditions: disclosed in Japanese Patent First Publications; cited from earlier work

Row | Structure (SMILES) | ED50 [1] | ED50 [2] | ED50 [3] | MLD (acute toxicity) (Male ddY mice) | anti-ulcer activity, in words (peptic ulcers)
1 | CCOC(=O)c1ccccc1NC(=O)[C@H]1CC[C@H](CNC(=N)N)CC1.Cl.O [A, N-(o-Ethoxycarbonylphenyl)-trans-4-guanidinomethylcyclohexanecarboxamide hydrochloride monohydrate] | 108 mg/kg | 36 mg/kg | 33 mg/kg | > 3,000 mg/kg | –
2 | COC(=O)c1ccccc1NC(=O)[C@H]1CC[C@H](CNC(=N)N)CC1.Cl.O [B, N-(o-Methoxycarbonylphenyl)-trans-4-guanidinomethylcyclohexanecarboxamide hydrochloride monohydrate] | 118 mg/kg | 42 mg/kg | 40 mg/kg | > 3,000 mg/kg | –
3 | Cl.N=C(N)NC[C@H]1CC[C@H](C(=O)Nc2ccccc2C(=O)O)CC1.O [C, N-(o-Carboxyphenyl)-trans-4-guanidinomethylcyclohexanecarboxamide hydrochloride monohydrate] | 114 mg/kg | 41 mg/kg | 37 mg/kg | > 3,000 mg/kg | –
4 | Cl.N=C(N)NC[C@H]1CC[C@H](C(=O)Oc2ccccc2C(=O)OCc2ccccc2)CC1 [X, Trans-4-guanidinomethylcyclohexanecarboxylic acid o-benzyloxycarbonylphenylester hydrochloride, reference compound] | 376 mg/kg | 108 mg/kg | 103 mg/kg | > 3,000 mg/kg | shows an anti-ulcer activity
5 | Cl.N=C(N)NC[C@H]1CC[C@H](C(=O)Nc2ccccc2)CC1 [Y, N-Phenyl-trans-4-guanidinomethylcyclohexanecarboxamide hydrochloride, reference compound] | 135 mg/kg | 199 mg/kg | 86 mg/kg | < 1,000 mg/kg | shows an anti-ulcer activity
